The target of test [1] is T1, 5-hydroxytryptamine receptor 2C (Homo sapiens, UniProt P28335).
T1 sequence (P28335 whole entry): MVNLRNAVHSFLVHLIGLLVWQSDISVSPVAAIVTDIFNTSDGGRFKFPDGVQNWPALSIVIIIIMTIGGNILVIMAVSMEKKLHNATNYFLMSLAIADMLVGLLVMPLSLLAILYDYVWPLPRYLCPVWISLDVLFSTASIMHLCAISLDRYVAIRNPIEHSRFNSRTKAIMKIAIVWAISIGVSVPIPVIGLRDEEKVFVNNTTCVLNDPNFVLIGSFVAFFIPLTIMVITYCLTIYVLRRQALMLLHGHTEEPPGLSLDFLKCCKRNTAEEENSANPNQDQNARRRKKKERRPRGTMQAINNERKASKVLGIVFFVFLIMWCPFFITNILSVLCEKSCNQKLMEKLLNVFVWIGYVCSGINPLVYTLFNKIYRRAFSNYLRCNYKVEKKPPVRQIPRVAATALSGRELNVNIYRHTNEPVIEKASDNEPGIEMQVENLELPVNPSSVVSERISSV
Description: Antagonist activity at 5-HT2C receptor in HEK293 cells assessed as calcium mobilisation by Fluo-4 dye based assay. The format is functional, cell-based. For orientation: A change in cytosolic calcium serves as a functional read-out for many receptors and channels.

The target in test [2] is T2, 5-hydroxytryptamine receptor 2A (Homo sapiens, UniProt P28223). Kind of test: Antagonist activity at 5-HT2A receptor in HEK293 cells assessed as calcium mobilisation by Fluo-4 dye based assay. It is filed as functional, cell-based.
T2 sequence (P28223 whole entry): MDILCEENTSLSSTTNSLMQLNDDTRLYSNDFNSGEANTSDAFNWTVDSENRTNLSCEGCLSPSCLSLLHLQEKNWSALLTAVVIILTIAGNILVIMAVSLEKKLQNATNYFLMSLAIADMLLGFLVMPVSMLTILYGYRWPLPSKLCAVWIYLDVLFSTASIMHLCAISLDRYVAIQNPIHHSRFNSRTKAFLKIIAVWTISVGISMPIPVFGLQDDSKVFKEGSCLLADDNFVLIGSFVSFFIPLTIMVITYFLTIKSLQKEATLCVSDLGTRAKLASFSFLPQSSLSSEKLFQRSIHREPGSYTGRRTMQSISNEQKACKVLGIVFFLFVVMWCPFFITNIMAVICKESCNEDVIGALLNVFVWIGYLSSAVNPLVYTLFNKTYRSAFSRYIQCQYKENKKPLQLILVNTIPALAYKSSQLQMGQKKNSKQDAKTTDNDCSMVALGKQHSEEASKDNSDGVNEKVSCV
The target in test [3] is Neuronal acetylcholine receptor; alpha4/beta2 (Homo sapiens) (UniProt P17787+P43681). Description: Inhibition of [3H]epibatidine from binding to human nACh receptor alpha4beta2 expressed in HEK293 cell membrane at 10 uM incubated for 2.5 hrs by liquid scintillation counting analysis relative to control. It is filed as cell membranes.
The target in test [4] is Neuronal acetylcholine receptor; alpha3/beta4 (Rattus norvegicus) (UniProt P04757+P12392). Description: Inhibition of [3H]epibatidine from binding to rat nACh receptor alpha3beta4 expressed in HEK293 cell membrane at 10 uM incubated for 2.5 hrs by liquid scintillation counting analysis relative to control. It is filed as cell membranes.
Test [5] deals with 5-hydroxytryptamine receptor 6 (Homo sapiens) (UniProt P50406). Kind of test: Inhibition of [3H]LSD from binding to 5-HT6 receptor (unknown origin) at 10 uM relative to control.
Chain of 5-hydroxytryptamine receptor 6 (Homo sapiens) (P50406 whole entry): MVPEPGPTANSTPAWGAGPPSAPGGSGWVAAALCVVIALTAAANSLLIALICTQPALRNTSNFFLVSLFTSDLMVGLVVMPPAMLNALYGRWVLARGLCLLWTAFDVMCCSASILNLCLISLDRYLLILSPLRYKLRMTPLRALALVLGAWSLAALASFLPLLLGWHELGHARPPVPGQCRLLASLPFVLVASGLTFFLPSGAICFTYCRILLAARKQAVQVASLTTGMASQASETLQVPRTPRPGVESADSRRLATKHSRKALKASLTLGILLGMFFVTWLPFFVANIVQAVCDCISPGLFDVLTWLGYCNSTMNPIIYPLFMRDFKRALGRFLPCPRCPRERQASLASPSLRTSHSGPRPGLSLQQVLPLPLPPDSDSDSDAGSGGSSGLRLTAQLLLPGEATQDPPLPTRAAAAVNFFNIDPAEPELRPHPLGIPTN
Test [6] deals with T3, Muscarinic acetylcholine receptor M2 (Homo sapiens) (UniProt P08172).
T3 sequence (whole entry): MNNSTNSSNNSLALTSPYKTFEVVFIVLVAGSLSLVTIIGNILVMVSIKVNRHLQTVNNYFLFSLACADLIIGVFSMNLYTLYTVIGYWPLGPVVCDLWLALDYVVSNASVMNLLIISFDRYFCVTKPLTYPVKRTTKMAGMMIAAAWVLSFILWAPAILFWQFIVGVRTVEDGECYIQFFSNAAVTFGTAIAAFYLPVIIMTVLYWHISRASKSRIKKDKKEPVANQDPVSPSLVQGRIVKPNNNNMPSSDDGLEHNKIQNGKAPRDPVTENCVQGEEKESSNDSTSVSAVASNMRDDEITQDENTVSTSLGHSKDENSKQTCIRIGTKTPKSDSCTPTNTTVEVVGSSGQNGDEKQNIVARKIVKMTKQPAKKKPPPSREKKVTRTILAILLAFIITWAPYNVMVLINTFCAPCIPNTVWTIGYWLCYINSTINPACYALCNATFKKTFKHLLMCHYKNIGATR
Kind of test: Inhibition of [3H]AF-DX384 from binding to M2 receptor (unknown origin) at 10 uM relative to control.

In test [7] the target is Muscarinic acetylcholine receptor M3 (Homo sapiens) (UniProt P20309). Kind of test: Inhibition of [3H]4-DAMP from binding to M3 receptor (unknown origin) at 10 uM relative to control.
Chain of Muscarinic acetylcholine receptor M3 (Homo sapiens) (P20309 whole entry, looked up): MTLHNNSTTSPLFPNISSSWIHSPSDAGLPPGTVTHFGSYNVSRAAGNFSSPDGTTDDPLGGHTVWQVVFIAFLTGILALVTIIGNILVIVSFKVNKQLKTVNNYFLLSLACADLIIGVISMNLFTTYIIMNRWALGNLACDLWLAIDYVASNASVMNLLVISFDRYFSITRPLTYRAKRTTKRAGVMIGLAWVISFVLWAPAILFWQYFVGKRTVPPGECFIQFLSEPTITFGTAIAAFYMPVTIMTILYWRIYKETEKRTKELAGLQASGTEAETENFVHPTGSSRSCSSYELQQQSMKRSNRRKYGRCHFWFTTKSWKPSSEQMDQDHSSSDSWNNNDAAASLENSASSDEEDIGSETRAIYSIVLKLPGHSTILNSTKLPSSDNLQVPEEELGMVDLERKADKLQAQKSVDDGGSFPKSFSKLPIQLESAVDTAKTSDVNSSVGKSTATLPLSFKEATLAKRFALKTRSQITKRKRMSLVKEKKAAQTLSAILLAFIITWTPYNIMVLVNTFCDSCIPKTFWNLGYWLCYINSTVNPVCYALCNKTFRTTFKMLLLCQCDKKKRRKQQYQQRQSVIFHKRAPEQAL
The target of test [8] is T4, 5-hydroxytryptamine receptor 1A (Homo sapiens) (UniProt P08908).
T4 sequence (whole entry): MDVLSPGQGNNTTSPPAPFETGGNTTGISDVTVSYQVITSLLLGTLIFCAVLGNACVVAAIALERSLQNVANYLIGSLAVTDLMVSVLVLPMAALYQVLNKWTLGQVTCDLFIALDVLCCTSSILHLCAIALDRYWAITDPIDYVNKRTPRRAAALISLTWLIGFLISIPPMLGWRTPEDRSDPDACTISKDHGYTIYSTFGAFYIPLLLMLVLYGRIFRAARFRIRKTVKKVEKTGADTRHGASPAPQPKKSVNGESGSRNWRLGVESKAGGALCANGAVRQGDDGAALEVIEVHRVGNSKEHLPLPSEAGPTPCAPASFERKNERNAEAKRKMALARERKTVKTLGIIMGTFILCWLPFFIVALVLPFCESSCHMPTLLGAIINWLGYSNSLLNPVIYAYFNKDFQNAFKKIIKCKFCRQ
Kind of test: Inhibition of [3H]-8-OH-DPAT from binding to 5-HT1A receptor (unknown origin) at 10 uM relative to control.

The species named for test [9] is Homo sapiens. Kind of test: Inhibition of [3H]BRL43694 from binding to 5-HT3 receptor (unknown origin) at 10 uM relative to control.
Test [10] addresses 5-hydroxytryptamine receptor 2B (Homo sapiens) (UniProt P41595). Kind of test: Inhibition of [3H]mesulergine from binding to 5-HT2B receptor (unknown origin) at 10 uM relative to control.
Test [11] addresses 5-hydroxytryptamine receptor 4 (Homo sapiens) (UniProt Q13639). Kind of test: Inhibition of [3H]GR113808 from binding to 5-HT4E receptor (unknown origin) at 10 uM relative to control.
Test [12] deals with T5, Muscarinic acetylcholine receptor M1 (Homo sapiens) (UniProt P11229).
T5 sequence (whole entry): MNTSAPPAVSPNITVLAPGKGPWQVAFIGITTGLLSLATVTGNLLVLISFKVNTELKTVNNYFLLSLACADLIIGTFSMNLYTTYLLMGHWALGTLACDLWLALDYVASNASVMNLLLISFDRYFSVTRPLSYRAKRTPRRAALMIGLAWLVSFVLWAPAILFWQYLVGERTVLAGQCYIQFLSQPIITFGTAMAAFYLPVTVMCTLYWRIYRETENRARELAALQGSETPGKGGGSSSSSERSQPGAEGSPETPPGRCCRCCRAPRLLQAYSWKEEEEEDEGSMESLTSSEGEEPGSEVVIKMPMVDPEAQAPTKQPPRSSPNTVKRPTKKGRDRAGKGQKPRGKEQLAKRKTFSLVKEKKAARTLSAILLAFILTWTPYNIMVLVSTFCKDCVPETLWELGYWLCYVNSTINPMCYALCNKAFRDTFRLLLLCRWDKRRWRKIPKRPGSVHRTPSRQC
Kind of test: Inhibition of [3H]pirenzepine from binding to M1 receptor (unknown origin) at 10 uM relative to control.

For test [13], the target named is 5-hydroxytryptamine receptor 7 (Homo sapiens) (UniProt P34969). Kind of test: Inhibition of [3H]LSD from binding to 5-HT7 receptor (unknown origin) at 1 uM relative to control.
Chain of 5-hydroxytryptamine receptor 7 (Homo sapiens) (P34969 whole entry): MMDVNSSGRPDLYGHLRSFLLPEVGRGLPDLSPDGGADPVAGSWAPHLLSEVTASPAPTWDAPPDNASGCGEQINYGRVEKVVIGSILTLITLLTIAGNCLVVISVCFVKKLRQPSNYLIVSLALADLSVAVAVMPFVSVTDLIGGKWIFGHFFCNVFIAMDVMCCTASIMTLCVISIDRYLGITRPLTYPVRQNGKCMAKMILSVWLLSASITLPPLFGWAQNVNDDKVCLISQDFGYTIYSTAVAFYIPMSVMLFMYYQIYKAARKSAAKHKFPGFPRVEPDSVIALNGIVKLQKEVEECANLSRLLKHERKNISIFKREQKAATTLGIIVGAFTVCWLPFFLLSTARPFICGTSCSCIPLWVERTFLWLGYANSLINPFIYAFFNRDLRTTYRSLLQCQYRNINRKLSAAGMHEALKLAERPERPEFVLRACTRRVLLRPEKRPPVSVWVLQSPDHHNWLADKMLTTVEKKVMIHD
The target of test [14] is T6, Muscarinic acetylcholine receptor M5 (Homo sapiens) (UniProt P08912).
T6 sequence (whole entry): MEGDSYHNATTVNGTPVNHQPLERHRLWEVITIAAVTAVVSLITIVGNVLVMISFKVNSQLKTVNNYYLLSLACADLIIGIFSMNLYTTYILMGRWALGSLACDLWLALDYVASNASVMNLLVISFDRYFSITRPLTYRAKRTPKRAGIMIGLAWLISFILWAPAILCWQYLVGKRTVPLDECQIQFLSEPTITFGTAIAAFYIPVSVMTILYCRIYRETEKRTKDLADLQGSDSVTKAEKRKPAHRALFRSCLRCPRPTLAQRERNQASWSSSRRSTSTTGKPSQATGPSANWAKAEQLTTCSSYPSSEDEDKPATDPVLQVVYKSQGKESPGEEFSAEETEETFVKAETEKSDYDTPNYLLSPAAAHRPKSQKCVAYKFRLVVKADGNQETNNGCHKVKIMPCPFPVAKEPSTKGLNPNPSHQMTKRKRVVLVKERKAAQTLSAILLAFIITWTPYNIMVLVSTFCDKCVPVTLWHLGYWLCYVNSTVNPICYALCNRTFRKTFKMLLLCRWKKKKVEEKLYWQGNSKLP
Description: Inhibition of [3H]4-DAMP from binding to M5 receptor (unknown origin) at 10 uM relative to control.

Test [15] deals with 5-hydroxytryptamine receptor 5A (Homo sapiens) (UniProt P47898). Description: Inhibition of [3H]LSD from binding to 5-HT5A receptor (unknown origin) at 10 uM relative to control.
Chain of 5-hydroxytryptamine receptor 5A (Homo sapiens) (P47898 whole entry): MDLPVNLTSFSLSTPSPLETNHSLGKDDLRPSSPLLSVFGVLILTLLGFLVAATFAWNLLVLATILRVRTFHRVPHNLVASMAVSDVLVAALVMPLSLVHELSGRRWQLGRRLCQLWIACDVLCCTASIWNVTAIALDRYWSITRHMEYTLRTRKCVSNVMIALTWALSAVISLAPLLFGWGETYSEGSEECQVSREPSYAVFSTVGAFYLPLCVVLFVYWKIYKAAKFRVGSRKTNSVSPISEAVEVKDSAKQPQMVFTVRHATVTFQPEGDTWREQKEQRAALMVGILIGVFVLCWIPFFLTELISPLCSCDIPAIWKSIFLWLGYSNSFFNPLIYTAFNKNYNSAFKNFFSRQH
Test [16] in a line: Antagonist activity at 5-HT-induced 5-HT2B signaling in CHO cells by IP1 assay. Conditions: Cricetulus griseus.
In test [17] the target is 5-hydroxytryptamine receptor 7 (Homo sapiens) (UniProt P34969). Kind of test: Inhibition of [3H]LSD from binding to 5-HT7 receptor (unknown origin) at 10 uM relative to control.
For test [18], the target named is T7, Muscarinic acetylcholine receptor M4 (Homo sapiens) (UniProt P08173).
T7 sequence (whole entry): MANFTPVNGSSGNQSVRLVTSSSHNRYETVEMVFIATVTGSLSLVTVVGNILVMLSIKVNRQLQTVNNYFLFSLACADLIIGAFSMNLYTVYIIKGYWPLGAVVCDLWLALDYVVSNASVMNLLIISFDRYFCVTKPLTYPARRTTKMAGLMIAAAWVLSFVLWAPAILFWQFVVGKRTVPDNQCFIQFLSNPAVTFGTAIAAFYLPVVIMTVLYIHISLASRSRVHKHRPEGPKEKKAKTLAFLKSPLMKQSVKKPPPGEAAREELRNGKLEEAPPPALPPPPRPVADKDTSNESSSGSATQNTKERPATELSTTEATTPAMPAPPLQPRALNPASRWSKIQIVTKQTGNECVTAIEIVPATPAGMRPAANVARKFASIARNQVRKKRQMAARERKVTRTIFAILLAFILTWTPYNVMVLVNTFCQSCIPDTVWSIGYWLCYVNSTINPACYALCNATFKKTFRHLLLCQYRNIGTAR
Kind of test: Inhibition of [3H]4-DAMP from binding to M4 receptor (unknown origin) at 10 uM relative to control.

For test [19], the target named is T2, 5-hydroxytryptamine receptor 2A. Description: Agonist activity at 5-HT2A receptor in HEK293 cells assessed as calcium mobilisation by Fluo-4 dye based assay.

Chain of 5-hydroxytryptamine receptor 2B (Homo sapiens) (P41595 whole entry): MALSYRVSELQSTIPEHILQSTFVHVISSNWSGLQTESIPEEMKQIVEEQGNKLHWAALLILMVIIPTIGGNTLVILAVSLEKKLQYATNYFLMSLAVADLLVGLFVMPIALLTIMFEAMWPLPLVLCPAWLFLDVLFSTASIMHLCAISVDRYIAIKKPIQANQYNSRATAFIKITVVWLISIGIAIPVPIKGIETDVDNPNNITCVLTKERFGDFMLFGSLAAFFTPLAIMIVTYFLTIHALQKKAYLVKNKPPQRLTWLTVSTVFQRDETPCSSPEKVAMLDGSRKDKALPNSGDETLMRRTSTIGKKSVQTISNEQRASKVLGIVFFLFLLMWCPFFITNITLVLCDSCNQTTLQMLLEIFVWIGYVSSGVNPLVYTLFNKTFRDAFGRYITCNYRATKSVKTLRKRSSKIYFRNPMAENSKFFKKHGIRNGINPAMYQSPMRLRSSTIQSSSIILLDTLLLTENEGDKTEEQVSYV
Chain of 5-hydroxytryptamine receptor 4 (Homo sapiens) (Q13639 whole entry): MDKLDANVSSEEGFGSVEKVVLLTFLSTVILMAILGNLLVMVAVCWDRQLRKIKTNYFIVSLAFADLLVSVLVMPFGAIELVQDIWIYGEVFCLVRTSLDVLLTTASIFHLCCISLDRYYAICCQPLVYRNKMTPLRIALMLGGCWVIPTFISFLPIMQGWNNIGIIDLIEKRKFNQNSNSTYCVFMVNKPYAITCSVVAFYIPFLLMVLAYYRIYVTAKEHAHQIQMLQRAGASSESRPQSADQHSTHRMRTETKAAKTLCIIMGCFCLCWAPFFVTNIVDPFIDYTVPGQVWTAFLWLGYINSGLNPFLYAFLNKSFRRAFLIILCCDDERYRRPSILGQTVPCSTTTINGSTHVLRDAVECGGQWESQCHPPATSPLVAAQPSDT

What is called IC50 is the concentration needed to halve the response being measured. Regarding `COc1ccc2c(c1)C(=O)C[C@]1(CN3CCC1CC3)O2`, the IC50 in test [1] and in test [2] was greater than 10 µM in each case.

Consider `O=C1C[C@]2(CN3CCC2CC3)Oc2cc3ccccc3cc21`, for which the IC50 in [1] was greater than 100 µM; in test [2], 50 µM.

For the molecule `O=C1CC2(CN3CCC2CC3)Oc2c1ccc1ccccc21` (racemic), the IC50 in test [1] was found to be 0.18 µM; in test [2] it was 20 µM.

In the case of `O=C1C[C@]2(CN3CCC2CC3)Oc2cc(OCC3CC3)ccc21`, the values for the half-maximal inhibitory concentration (IC50) in [1] and in [2] were 1.5 µM and greater than 100 µM, respectively.

As for `O=C1C[C@]2(CN3CCC2CC3)Oc2cc(O)ccc21`, the half-inhibitory concentration (IC50) in test [1] was 2.5 µM; in test [2] it was greater than 100 µM.

Broadly, the inhibition is how much of the control response was suppressed. Turning to `O=C1NC2(CN3CCC2CC3)Nc2ccccc21` (stereo not given), the inhibition in test [3] and in test [4] was greater than 50% each time.

As for `O=C1C[C@]2(CN3CCC2CC3)Oc2ccc(F)cc21`, the IC50 in [1] and in test [2] was greater than 10 µM each time.

As to `O=C1C[C@@]2(CN3CCC2CC3)Oc2c1ccc1ccccc21`, the IC50 in test [1] was 50 µM; in [2] it was greater than 100 µM.

As for `O=C1C[C@]2(CN3CCC2CC3)Oc2c1ccc1ccccc21`, the inhibition amounted to 57% in test [5]; 31% in test [6]; 27% in test [7]; 57% in test [8]; 85% in test [9]; 99% in [10]. Also, the inhibition in test [11] is 42%; in [12], 67%; in test [13] it was 67%; in test [14], 69%; in test [15], 64%; in [17], 92%. The same molecule came in with an inhibition in [18] of 67%. Besides, the figures for the 50% inhibitory concentration (IC50) in test [1], in test [2] and in test [16] were 0.095 µM, 50 µM and 0.135 µM, respectively.

`O=C1C[C@]2(CN3CCC2CC3)Oc2ccc(Br)cc21`: the IC50 in [1] and in test [2] was greater than 10 µM each time.

Regarding `O=C1C[C@]2(CN3CCC2CC3)Oc2cc(Br)ccc21`, the IC50 is 2.3 µM in [1] and 15 µM in [2].

`Cc1ccc2c(c1)O[C@]1(CC2=O)CN2CCC1CC2`: the IC50 in [1] was 2.5 µM; in test [2] it was greater than 100 µM.

Consider `O=C1C[C@]2(CN3CCC2CC3)Oc2ccccc21`, for which the IC50 in test [1] and in [2] was greater than 10 µM throughout.

In the case of `COc1cccc2c1C(=O)C[C@]1(CN3CCC1CC3)O2`, the IC50 in test [1] was 5 µM; in test [2], greater than 100 µM.

The term EC50 denotes the concentration at which the effect is half-maximal. For the molecule `COc1ccc2c(c1)O[C@]1(CC2=O)CN2CCC1CC2`, the IC50 in test [1] was 0.52 µM; in [2] it was greater than 30 µM. For the same molecule, in [19], the EC50 is greater than 30 µM.

Values taken from ChEMBL document CHEMBL5360648, “Identification of 5-HT2 Serotonin Receptor Modulators through the Synthesis of a Diverse, Tropane- and Quinuclidine-alkaloid-Inspired Compound Library” (J Med Chem, 2023).
